The results in this text go back to article PMC11255104 (Food Chemistry: X, 2024).

For orientation: half-life means the time in which the quantity being followed falls by half. The low end stands for rapid decline, the high end for slow decline. By Cmax is commonly meant the highest concentration seen after dosing. Usually Tmax stands for the time from dosing to the highest level.

A short description of the data set: Pharmacokinetic study in rats after oral administration of MOL extract. The format is in vivo, Sprague-Dawley rats.
Setting [1] is: male, Sprague-Dawley, rat, plasma, po, 30 g/kg.

Bounds are passed on as bounds.

In turn, `O=C(/C=C/c1ccc(O)c(O)c1)O[C@@H]1C[C@](O)(C(=O)O)C[C@@H](O)[C@H]1O` [Chlorogenic acid] gave a half-life under setting [1] of 5.06 h.
Take `O=c1c(O[C@@H]2O[C@H](CO)[C@@H](O)[C@H](O)[C@H]2O)c(-c2ccc(O)c(O)c2)oc2cc(O)cc(O)c12` [Isoquercitrin]: under setting [1], the Cmax was determined as 643 ng/mL and the Tmax is 0.24 h. The “time over which the substance could be detected in plasma” value (rat plasma, oral MOL extract 30 g/kg) was at most 12 h.
